From patent US20230227427A1, “IL-17A MODULATORS” (SANOFI, priority 2010, published 2023)
Each block holds one molecule with its values, some of them ahead of it.

Target: T1, human recombinant IL-17A (Homo sapiens, UniProt Q16552)
T1 construct: purchased R&D Systems 7955-IL/CF
T1 sequence (Q16552 24-155): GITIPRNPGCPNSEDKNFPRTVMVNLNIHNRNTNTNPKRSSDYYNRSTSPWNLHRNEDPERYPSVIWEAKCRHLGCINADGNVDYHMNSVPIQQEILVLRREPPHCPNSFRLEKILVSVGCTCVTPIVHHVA
Test: IL-17A AlphaLISA assay (block binding of IL-17A to its receptor IL-17RA)
Details: compounds pre-incubated with the IL-17A for 24 h at room temperature; read-out: AlphaLISA pIC50 (converted)
Procedure: The ability of the compounds to block binding of IL-17A to its receptor, IL-17RA, was analysed in a competition assay using AlphaLISA technology (Perkin Elmer). The assay is a bead based AlphaLISA where the IL-17RA is captured on the acceptor bead via an Fc tag and IL-17A is captured on the streptavidin donor bead via a biotinylated anti-IL17A antibody.
Assay buffer was prepared by adding 0.05% Tween-20 (v/v) and 0.1% BSA to Phosphate Buffered Saline (PBS). The assay was carried out in 384-well white low volume plates (Corning 4512). 10 µL of a 7.5 nM stock of human recombinant IL-17A (R&D Systems 7955-IL/CF) diluted in assay buffer was dispensed into the assay plate and compounds or DMSO vehicle control were added in a volume of 75 nL using a D300 dispenser (Hewlett Packard). The compounds were pre-incubated with the IL-17A for 24 h at room temperature (or for 30 min, where indicated by * in Table A below) prior to addition of 5 μL of a 5 nM stock of human recombinant IL-17RA/Fc chimera (R&D Systems 177-IR-100) diluted in assay buffer. The IL-17A was incubated with the receptor for a further 90 minutes at room temperature before addition of 5 μL of a mixture of anti-human Fc IgG acceptor beads (75 μg/mL, Perkin Elmer AL103C) and anti-IL-17A biotin conjugated antibody (5 nM, Enzo Life Sciences, ENZ-ABS278-0100) in assay buffer. After a further 30 min incubation at room temperature, 5 μL of streptavidin donor beads ([…], Perkin Elmer 6760002S) were added and the plate was incubated for 3 h in the dark.
The luminescence signal was measured using an Enspire plate reader (Perkin Elmer) with excitation at 680 nm and emission at 615 nm. Data were analysed using GraphPad Prism and fitted to a 4-parameter logistic equation. The IC50 values were calculated using the DMSO vehicle as the negative control and a high concentration (6 μM) of a reference IL-17A inhibitor as the positive control.
Activity of the Example compounds is reported as a PIC50 value in Table A.

- IC50: 31.6 nM
SMILES: COc1cnccc1-c1ccc(NC(=O)[C@@H](NC(=O)c2ccnn2C)C(c2ccccc2)c2ccccc2)cc1F [Example 24, (S)—N-(1-((3-fluoro-4-(3-methoxypyridin-4-yl)phenyl)amino)-1-oxo-3,3-diphenylpropan-2-yl)-1-methyl-1H-pyrazole-5-carboxamide]

- IC50: 5.01 nM
SMILES: COc1c[n+]([O-])ccc1-c1ccc(NC(=O)[C@@H](NC(=O)c2ccnn2C)C(c2ccccc2)c2ccccc2)cc1 [Example 25, (S)-3-methoxy-4-(4-(2-(1-methyl-1H-pyrazole-5-carboxamido)-3,3-diphenylpropanamido)phenyl)pyridine 1-oxide]

- IC50: 7.94 nM
SMILES: Cc1c[n+]([O-])cc(C)c1-c1ccc(NC(=O)[C@@H](NC(=O)c2ccnn2C)C(c2ccccc2)c2ccccc2)cc1 [Example 26, (S)-3,5-dimethyl-4-(4-(2-(1-methyl-1H-pyrazole-5-carboxamido)-3,3-diphenylpropanamido)phenyl)pyridine 1-oxide]

- IC50: 5.01 nM
SMILES: COc1c[n+]([O-])cc(OC)c1-c1ccc(NC(=O)[C@@H](NC(=O)c2ccnn2C)C(c2ccccc2)c2ccccc2)cc1 [Example 27, (S)-3,5-dimethoxy-4-(4-(2-(1-methyl-1H-pyrazole-5-carboxamido)-3,3-diphenylpropanamido)phenyl)pyridine 1-oxide]

- IC50: 7.94 nM
SMILES: COc1c[n+]([O-])cc(F)c1-c1ccc(NC(=O)[C@@H](NC(=O)c2ccnn2C)C(c2ccccc2)c2ccccc2)cc1 [Example 28, (S)-3-fluoro-5-methoxy-4-(4-(2-(1-methyl-1H-pyrazole-5-carboxamido)-3,3-diphenylpropanamido)phenyl)pyridine 1-oxide]

- IC50: 12.6 nM
SMILES: Cc1n[nH]c(C)c1-c1ccc(NC(=O)[C@@H](NC(=O)c2ccnn2C)C(c2ccccc2)c2ccccc2)cc1 [Example 32, (S)—N-(1-((4-(3,5-dimethyl-1H-pyrazol-4-yl)phenyl)amino)-1-oxo-3,3-diphenylpropan-2-yl)-1-methyl-1H-pyrazole-5-carboxamide]

- IC50: 25.1 nM
SMILES: Cn1nccc1C(=O)N[C@H](C(=O)Nc1ccc(-c2cc[nH]c(=O)c2)c(F)c1)C(c1ccccc1)c1ccccc1 [Example 35, (S)—N-(1-((3-fluoro-4-(2-oxo-1,2-dihydropyridin-4-yl)phenyl)amino)-1-oxo-3,3-diphenylpropan-2-yl)-1-methyl-1H-pyrazole-5-carboxamide]

- IC50: 79.4 nM
SMILES: Cn1nccc1C(=O)N[C@H](C(=O)Nc1ccc(-c2ccncc2F)cc1)C(c1ccccc1)c1ccccc1 [Example 36, (S)—N-(1-((4-(3-fluoropyridin-4-yl)phenyl)amino)-1-oxo-3,3-diphenylpropan-2-yl)-1-methyl-1H-pyrazole-5-carboxamide]

- IC50: 39.8 nM
SMILES: Cc1ncc(C)c(-c2ccc(NC(=O)[C@@H](NC(=O)c3ccnn3C)C(c3ccccc3)c3ccccc3)cc2)n1 [Example 37, (S)—N-(1-((4-(2,5-dimethylpyrimidin-4-yl)phenyl)amino)-1-oxo-3,3-diphenylpropan-2-yl)-1-methyl-1H-pyrazole-5-carboxamide]

- IC50: 100 nM
SMILES: Cc1cc(-c2ccc(NC(=O)[C@@H](NC(=O)c3ccnn3C)C(c3ccccc3)c3ccccc3)cc2)c(C)cn1 [Example 38, (S)—N-(1-((4-(2,5-dimethylpyridin-4-yl)phenyl)amino)-1-oxo-3,3-diphenylpropan-2-yl)-1-methyl-1H-pyrazole-5-carboxamide]

- IC50: 50.1 nM
SMILES: Cn1nccc1C(=O)N[C@H](C(=O)Nc1ccc(-c2ccncc2CO)cc1)C(c1ccccc1)c1ccccc1 [Example 42, (S)—N-(1-((4-(3-(hydroxymethyl)pyridin-4-yl)phenyl)amino)-1-oxo-3,3-diphenylpropan-2-yl)-1-methyl-1H-pyrazole-5-carboxamide]

- IC50: 126 nM
SMILES: Cn1nccc1C(=O)N[C@H](C(=O)Nc1ccc(-c2ccncc2C#N)cc1)C(c1ccccc1)c1ccccc1 [Example 43, (S)—N-(1-((4-(3-cyanopyridin-4-yl)phenyl)amino)-1-oxo-3,3-diphenylpropan-2-yl)-1-methyl-1H-pyrazole-5-carboxamide]

- IC50: 251 nM
SMILES: Cn1nccc1C(=O)N[C@H](C(=O)Nc1ccc(-c2ccnc3c2CCC3)cc1)C(c1ccccc1)c1ccccc1 [Example 44, (S)—N-(1-((4-(6,7-dihydro-5H-cyclopenta[b]pyridin-4-yl)phenyl)amino)-1-oxo-3,3-diphenylpropan-2-yl)-1-methyl-1H-pyrazole-5-carboxamide]

- IC50: 25.1 nM
SMILES: COc1cnccc1-c1ccc(NC(=O)[C@@H](NC(=O)c2ccnn2C)C(c2ccccc2)c2ccccc2)cc1OC [Example 47, (S)—N-(1-((3-methoxy-4-(3-methoxypyridin-4-yl)phenyl)amino)-1-oxo-3,3-diphenylpropan-2-yl)-1-methyl-1H-pyrazole-5-carboxamide]

Second part, the molecule before the results:

SMILES: Cc1c(-c2c(F)cc(NC(=O)[C@@H](NC(=O)c3ccnn3C)C(c3ccccc3)c3ccccc3)cc2F)ccc(=O)n1C [Example 29, (S)—N-(1-((4-(1,2-dimethyl-6-oxo-1,6-dihydropyridin-3-yl)-3,5-difluorophenyl)amino)-1-oxo-3,3-diphenylpropan-2-yl)-1-methyl-1H-pyrazole-5-carboxamide]
- IC50: 20 nM

SMILES: COc1cnccc1-c1c(F)cc(NC(=O)[C@@H](NC(=O)c2ccnn2C)C(c2ccccc2)c2ccccc2)cc1F [Example 30, (S)—N-(1-((3,5-difluoro-4-(3-methoxypyridin-4-yl)phenyl)amino)-1-oxo-3,3-diphenylpropan-2-yl)-1-methyl-1H-pyrazole-5-carboxamide]
- IC50: 39.8 nM

SMILES: Cc1nn(Cc2ccccc2)c(C)c1-c1ccc(NC(=O)[C@@H](NC(=O)c2ccnn2C)C(c2ccccc2)c2ccccc2)cc1 [Example 31, (S)—N-(1-((4-(1-benzyl-3,5-dimethyl-1H-pyrazol-4-yl)phenyl)amino)-1-oxo-3,3-diphenylpropan-2-yl)-1-methyl-1H-pyrazole-5-carboxamide]
- IC50: 631 nM

SMILES: Cc1c(-c2ccc(NC(=O)[C@@H](NC(=O)c3ccnn3C)[C@H]3CC[C@H](C)CC3)cc2)ccc(=O)n1C [Example 33, N—((S)-2-((4-(1,2-dimethyl-6-oxo-1,6-dihydropyridin-3-yl)phenyl)amino)-1-((1r,4S)-4-methylcyclohexyl)-2-oxoethyl)-1-methyl-1H-pyrazole-5-carboxamide]
- IC50: 79.4 nM

SMILES: CCn1nccc1C(=O)N[C@H](C(=O)Nc1ccc(-c2ccc(=O)[nH]n2)c(F)c1)C(c1ccccc1)c1ccccc1 [Example 34, (S)-1-ethyl-N-(1-((3-fluoro-4-(6-oxo-1,6-dihydropyridazin-3-yl)phenyl)amino)-1-oxo-3,3-diphenylpropan-2-yl)-1H-pyrazole-5-carboxamide]
- IC50: 200 nM

SMILES: Cn1nccc1C(=O)N[C@H](C(=O)Nc1ccc(-c2cnc3ccccn23)cc1)C(c1ccccc1)c1ccccc1 [Example 39, (S)—N-(1-((4-(imidazo[1,2-a]pyridin-3-yl)phenyl)amino)-1-oxo-3,3-diphenylpropan-2-yl)-1-methyl-1H-pyrazole-5-carboxamide]
- IC50: 200 nM

SMILES: Cn1nccc1C(=O)N[C@H](C(=O)Nc1ccc(-c2ncnc3c2CCN3)cc1)C(c1ccccc1)c1ccccc1 [Example 40, (S)—N-(1-((4-(6,7-dihydro-5H-pyrrolo[2,3-d]pyrimidin-4-yl)phenyl)amino)-1-oxo-3,3-diphenylpropan-2-yl)-1-methyl-1H-pyrazole-5-carboxamide]
- IC50: 63.1 nM

SMILES: Cn1nccc1C(=O)N[C@H](C(=O)Nc1ccc(-c2cnc3ncccn23)cc1)C(c1ccccc1)c1ccccc1 [Example 41, (S)—N-(1-((4-(imidazo[1,2-a]pyrimidin-3-yl)phenyl)amino)-1-oxo-3,3-diphenylpropan-2-yl)-1-methyl-1H-pyrazole-5-carboxamide]
- IC50: 200 nM

SMILES: Cc1cc(NC(=O)[C@@H](NC(=O)c2ccnn2C)C(c2ccccc2)c2ccccc2)ccc1-c1ccncc1 [Example 45, (S)-1-methyl-N-(1-((3-methyl-4-(pyridin-4-yl)phenyl)amino)-1-oxo-3,3-diphenylpropan-2-yl)-1H-pyrazole-5-carboxamide]
- IC50: 100 nM

SMILES: COc1cnccc1-c1ccc(NC(=O)[C@@H](NC(=O)c2ccnn2C(F)F)C(c2ccccc2)c2ccccc2)cc1 [Example 46, (S)-1-(difluoromethyl)-N-(1-((4-(3-methoxypyridin-4-yl)phenyl)amino)-1-oxo-3,3-diphenylpropan-2-yl)-1H-pyrazole-5-carboxamide]
- IC50: 100 nM
